# Assay results as given in paper PMC9306920 (Clinical Pharmacology in Drug Development, 2022).
# Experiments:
# healthy subjects = assay: Thorough QT study: cardiodynamic ECG assessment; assay type: in vivo, human
# [1] = Plasma pharmacokinetics in thorough QT study; assay type: in vivo, human; conditions: moxifloxacin 400 mg single oral dose
structure (smiles),measurement,setting,value
COc1c(N2C[C@@H]3CCCN[C@@H]3C2)c(F)cc2c(=O)c(C(=O)O)cn(C3CC3)c12 [Moxifloxacin],Subjects with QTcF of >450 milliseconds or ΔQTcF of >30 milliseconds,"healthy subjects; any treatment, any time point",No subject
same,U-wave presence,healthy subjects; during the study,No U‐wave observations
same,Largest LS mean ΔQRS,"healthy subjects; moxifloxacin 400 mg, 0.5, 1, and […] after dosing",0.2 milliseconds
same,Largest LS mean ΔΔQTcF,"healthy subjects; moxifloxacin 400 mg, 2 hours after dosing",12.9 milliseconds
same,Peak LS mean ΔQTcF,"healthy subjects; moxifloxacin 400 mg, 3 hours after dosing",9.2 milliseconds
same,Largest LS mean ΔHR,"healthy subjects; moxifloxacin 400 mg, 6 hours after dosing",8.7 bpm
same,"Frequencies of flat, notched, and biphasic T-wave morphologies",healthy subjects; versus placebo,lower than or the same as for placebo
same,Time at which plasma concentration reached its maximal value,[1],2 h
same,Time plasma concentration remained detectable,[1],72 h
